Like-named read-outs stand apart in the source and are kept apart here.
What was measured:
[1] = Stability of the selenoureas before screening; format: physicochemical
[2] = tested on: MCF-7 cells (breast adenocarcinoma); assay: MTT cell viability assay, MCF-7; format: cell-based, human; conditions: for IC50 / viability at 10 µM / viability at 50 µM: Homo sapiens; for IC50: read-out: IC50 MCF-7 (breast); for viability at 10 µM / viability at 50 µM: read-out: cell viability, percentage of live cells; for SI (selectivity index) breast: IC50 (184B5)/IC50 (MCF-7)
Protocol: (§1) Cell lines were purchased from the American Type Culture Collection (ATCC). MCF-7, HTB-54, BEAS-2B and 184B5 cell lines were grown in RPMI 1640 medium (Gibco) supplemented with 10% fetal bovine serum (FBS; Gibco), 100 units/mL penicillin, and […] streptomycin (Gibco). HT-29 and HCT-116 cell lines was cultured in McCoy’s 5A (Gibco), 10% FBS, 100 units/mL penicillin, and 100 μg/mL streptomycin. Cells were maintained at 37 °C and 5% CO2. Culture medium was replaced every three days.
(§2) A cell viability assay of each compound was carried out using an MTT assay. Each selenourea was dissolved in dimethyl sulfoxide (DMSO) at a concentration of 0.01 M. Serial dilutions were prepared with non-supplemented culture medium. Cytotoxic activity of each selenourea was determined at two different concentrations (10 and 50 µM) in MCF-7, HTB-54, and HT-29 cells. In addition, selected compounds were tested at seven different concentrations (0.1, 1, 5, 10, 25, 50, 100 µM) on MCF-7, HT-29, HCT-116, HTB-54, 184B5, and BEAS-2B cells. The number of passages before defrosting the cells was 3, and they were kept under culture up to a maximum of 15.
(§3) Briefly, 1 × 10^4 cells/well were grown in 96-well plates for 24 h. Then, these cells were incubated with either DMSO (negative control) at 5 µM or a different concentration of each tested selenourea for 48 h. A volume of 20 µL of MTT was added 150 min before the termination point to measure cellular viability. After this time, culture medium was removed. The resultant formazan crystals were dissolved in 50 µL of DMSO, and absorbance was measured at 570 nm. Results are expressed as IC50, the half maximal inhibitory concentration. This value was calculated using GraphPad Prism 7 software by nonlinear curve fitting. Furthermore, the selectivity index (SI) was calculated as the ratio of the IC50 values determined for the non-malignant and the tumoral cells (IC50 (184B5)/IC50 (MCF-7) or (IC50 (BEAS-2B)/IC50 (HTB-54). Data were obtained from at least three independent experiments performed in triplicates.
(§4) The cytotoxic effects of synthesized compounds were evaluated against three human cancer cell lines: breast adenocarcinoma (MCF-7), lung adenocarcinoma (HTB-54), and colon carcinoma (HT-29), using a 3-[4,5-dimethylthiazol-2-yl]-2,5-diphenyltetrazolium bromide (MTT) assay. Firstly, the compounds were screened at two doses (50 and 10 µM) and after 48 h of treatment. The results are summarized in Figure 4 and are presented as percentages of growth inhibition related to control.

[3] = tested on: 184B5 cells (breast non-malignant derived cell line); assay: MTT cell viability assay, 184B5; format: cell-based; conditions: Homo sapiens, read-out: IC50 184B5 (breast, non-malignant)
Protocol: as §1, §2, §3

[4] = tested on: HTB-54 cells (lung adenocarcinoma); assay: MTT cell viability assay, HTB-54; format: cell-based, human; conditions: for IC50 / viability at 10 µM / viability at 50 µM: Homo sapiens; for IC50: read-out: IC50 HTB-54 (lung); for viability at 10 µM / viability at 50 µM: read-out: cell viability, percentage of live cells
Protocol: as §1, §2, §3, §4

[5] = tested on: HT-29 cells (colon carcinoma); assay: MTT cell viability assay, HT-29; format: cell-based; conditions: Homo sapiens; for IC50: read-out: IC50 HT-29 (colon); for viability at 10 µM / viability at 50 µM: read-out: cell viability, percentage of live cells
Protocol: as §1, §2, §3, §4

[6] = DPPH radical scavenging assay; conditions: for DPPH radical scavenging kinetics: 0.03 mg/mL, time-point 0 min
Protocol: (§5) From all the methods available for the prediction of the antioxidant properties, DPPH^● and ABTS^●+ assays were chosen according to their simplicity, accessibility, and effectiveness for a fast prediction of radical scavenging activities in vitro. The radical scavenging capacity of the novel selenoureas was determined by DPPH^● and ABTS^●^+ assays. Measurements were recorded on a BioTeck PowerWave XS spectrophotometer (BioTeck Instruments, Winooski (VT), USA) and the data were collected using KCJunior software (BioTeck Instruments, Winooski (VT), USA).
A DPPH assay was performed, as described by Svinyarov. Stock solutions of 1 mg/mL were initially prepared for each selenourea in methanol and this solution was used for the preparation of the different concentrations employed in the assay. Ascorbic acid (Asc) was used as positive control due to the literature reports that this derivative is a potent antioxidant and radical scavenger. A volume of 100 µL from a previously prepared stock solution (preserved in dark and daily prepared) of DPPH (100 µM) in methanol were added to 100 µL of the methanolic selenoureas solutions prepared previously, and the antioxidant activity these compounds was assessed by its ability to decolorize DPPH● radical (purple color in methanol) to DPPHH (colorless). Thus, radical scavenging activity was estimated by the decrease in the absorbance at 517 nm. Determinations were recorded at different time-points. All the measurements were carried out in triplicate. Results are expressed as the percentage of the radicals scavenged, calculated using the following formula:(1) % DPPH radical scavenging=Acontrol − Asample/Acontrol × 100 where Acontrol refers to the absorbance of the negative control and Asample refers to the absorbance of the tested compounds. Results are expressed as percentage of DPPH radical scavenging ± SD.
In order to determine the radical scavenging of these newly synthesized selenourea derivatives, the DPPH assay was firstly employed. Measurements were performed at four different concentrations ranging from 0.0003 to 0.03 mg/mL, and collected at time-points between 0 min and 120 min (Figures S81–S100). Results are presented as the percentage of inhibition for DPPH radical scavenging activity.

HCT-116 cells (colon) = assay: MTT cell viability assay, HCT-116; format: cell-based; conditions: Homo sapiens, read-out: IC50 HCT-116 (colon)
Protocol: as §1, §2, §3

[7] = ABTS radical scavenging assay; conditions: 0.003 mg/mL, 60 min
Protocol: as §5
As well as DPPH, ABTS radical scavenging assay is a colorimetric method. ABTS (2,2′-azino-bis(3-ethylbenzothiazoline-6-sulfonic acid) was dissolved in deionized water at 1 mg/mL and oxidized to ABTS^●+ with potassium persulfate (2.45 mM final concentration). This oxidation process is not instantaneous, and the reaction mixture was kept in the dark overnight at room temperature. After ABTS^●+ radical was generated, the ABTS^●+ solution was diluted with 50% ethanol until an absorbance of 0.70 ± 0.02 at 734 nm for measurements was achieved. Stock solution of 1 mg/mL in absolute ethanol was prepared for each selenourea, and different dilutions were prepared to reach the final concentration, when 20 µL of this solution were added to 180 µL of the diluted ABTS^●+. The absorbance at 734 nm was recorded using 50% ethanol as blank. Trolox and Asc were used as positive controls. All determinations were carried out in triplicate. Same time intervals as in the DPPH assay were also measured. The ability to scavenge ABTS^●+ was calculated using the following formula:(2) % ABTS radical scavenging=Acontrol − Asample/Acontrol × 100 where Acontrol refers to the absorbance of the negative control and Asample refers to the absorbance of the tested compounds. The results are expressed as percentage of ABTS radical scavenging ± SD.
In order to confirm the antioxidant activity of the selenoureas, we performed an additional ABTS (2,2′-azino-bis(3-ethylbenzothiazoline-6-sulfonic acid) radical scavenging assay. Following the results obtained in the DPPH assay, this experiment was performed at 0.03 and 0.003 mg/mL. Measurements were recorded after 0′, 6′ and 60′ of incubation with ABTS. For comparison purposes, Trolox and ascorbic acid were used as references. The remarkable results are summarized in Figure 3.

[8] = tested on: BEAS-2B cells (lung non-malignant derived cell line); assay: MTT cell viability assay, BEAS-2B; format: cell-based; conditions: Homo sapiens, 48 h, mean ± SD
Protocol: as §1, §2, §3

SMILES | stability of the compound before screening [1] | melting point [°C] | IC50 ([2]; MCF7, 48 h, MTT, mean ± SD) [µM] | viability at 10 µM ([2]; MCF7, MCF-7, 10 µM, 48 h, MTT) [%] | viability at 50 µM ([2]; MCF7, MCF-7, 50 µM, 48 h, MTT) [%] | IC50 ([4]; HTB-54, 48 h, MTT, mean ± SD) [µM] | viability at 10 µM ([4]; HTB-54, 10 µM, 48 h, MTT) [%] | viability at 50 µM ([4]; HTB-54, 50 µM, 48 h, MTT) [%] | IC50 ([5]; HT-29, 48 h, MTT, mean ± SD) [µM] | viability at 10 µM ([5]; HT-29, 10 µM, 48 h, MTT) [%] | viability at 50 µM ([5]; HT-29, 50 µM, 48 h, MTT) [%] | also measured
CCCCCCNC(=[Se])Nc1ccc(C)cc1 [Compound 5b] | decomposed before screening | 88 |  |  |  |  |  |  |  |  |  | 
[Se]=C(NCc1nccs1)Nc1ccccc1 [Compound 2a] |  | 149 | 9.16 ± 3.49 | 41 | 42.8 | > 10 | 51.1 | 45.7 | > 10 | 79.7 | 47.3 | SI (selectivity index) breast [2]: 1.20; IC50 ([3]; 184B5, 48 h, MTT, mean ± SD): 11 ± 0.73 µM; DPPH radical scavenging kinetics [6]: reaching the maximum activity at time-point 0′
CCCCNC(=[Se])Nc1ccc(OC)cc1 [Compound 4c] | decomposed before screening | 89 |  |  |  |  |  |  |  |  |  | 
CCCCNC(=[Se])Nc1ccccc1 [Compound 4a] | decomposed before screening | 69 |  |  |  |  |  |  |  |  |  | 
CCCCNC(=[Se])Nc1ccc(C)cc1 [Compound 4b] | decomposed before screening | 46 |  |  |  |  |  |  |  |  |  | 
O=c1ccc2cc(NC(=[Se])Nc3ccccc3)ccc2o1 [Compound 3a] |  | 169 | > 10 | 53.5 | 29.8 | > 10 | 66 | 10.3 | 6.49 ± 1.58 | 47.5 | 30.2 | IC50 (HCT-116 cells (colon); HCT-116, 48 h, MTT, mean ± SD): 5.86 ± 0.52 µM; DPPH radical scavenging kinetics [6]: reaching the maximum activity at time-point 0′
[Se]=C(Nc1ccccc1)NC12CC3CC(CC(C3)C1)C2 [Compound 6a, N´-adamantyl-N-(phenyl)selenourea] |  | 161 |  |  |  |  |  |  |  |  |  | IC50 ([2]; MCF7, 48 h): 9.88 ± 1.46 µM; viability at 10 µM ([2]; MCF7, 48 h): 54.3%; viability at 50 µM ([2]; MCF7, 48 h): 18.2%; SI (selectivity index) breast [2]: 2.25; IC50 ([3]; 184B5, 48 h): 22.2 ± 4.07 µM; IC50 (HCT-116 cells (colon); HCT-116, 48 h): 5.69 ± 0.71 µM; IC50 ([4]; HTB-54, 48 h): > 10 µM; viability at 10 µM ([4]; HTB-54, 48 h): 51.9%; viability at 50 µM ([4]; HTB-54, 48 h): 15.7%; IC50 ([5]; HT-29, 48 h): 5.03 ± 3.06 µM; viability at 10 µM ([5]; HT-29, 48 h): 43%; viability at 50 µM ([5]; HT-29, 48 h): 33.9%; ABTS radical scavenging activity compared with Trolox [7]: significant lower radical scavenging activity than Trolox
Clc1ccc(NC(=[Se])NCc2nccs2)cc1 [Compound 2d] |  | 165 | > 10 | 59.7 | 35 | 8.65 ± 0.29 | 45.8 | 37.2 | > 10 | 77.2 | 67.1 | IC50 [8]: 5.22 ± 0.07 µM; SI (selectivity index) lung ([4]; IC50 (BEAS-2B)/IC50 (HTB-54)): 0.60; DPPH radical scavenging capacity compared with ascorbic acid ([6]; at lower concentrations): greater radical scavenging capacity than ascorbic acid
N#Cc1ccc(NC(=[Se])NCc2nccs2)cc1 [Compound 2e] |  | 152 |  | 62.3 | 43.6 |  | 66.6 | 40.1 |  | 57.9 | 59.2 | ABTS radical scavenging activity [7]: above 90%; DPPH radical scavenging kinetics [6]: reaching the maximum activity at time-point 0′
CCCCCCNC(=[Se])Nc1ccccc1 [Compound 5a] | decomposed before screening | 59 |  |  |  |  |  |  |  |  |  | 
Clc1ccc(NC(=[Se])NCc2ccco2)cc1 [Compound 1d] |  | 128 | > 10 | 78.2 | 27.9 | > 10 | 52.2 | 27.3 | 8.07 ± 3.77 | 48.6 | 35 | IC50 (HCT-116 cells (colon); HCT-116, 48 h, MTT, mean ± SD): 7.8 ± 0.56 µM

From PMC8156206, “Novel N,N′-Disubstituted Selenoureas as Potential Antioxidant and Cytotoxic Agents” (Antioxidants, 2021)
